Laboratory results: patent publication US9403800B2, “Compounds for inhibition of cancer cell proliferation” (ChemRegen, Inc., priority 2012, dated 2016)

Experiments:
[1] = system: Wnt transcriptional activity; test: cell-based Wnt-luciferase reporter assay (SuperTOPFlash); details: for Relative potency for Wnt inhibition: relative to IWR-1, transfected HEK293A cells treated 12 hours, normalized to Renilla
Text: “Hit” 1 (FIG. 1) was identified as a Wnt inhibitor in a high-throughput screen of a library of 74,000 compounds using a cell-based Wnt-luciferase reporter assay as a readout of Wnt transcriptional activity. […] Wnt transcriptional activity was monitored in HEK-293T cells using a luciferase-based Wnt reporter (SuperTOPFlash) stimulated by Wnt3a conditioned media.
Medicinal chemical refinement of “hit” 1 was undertaken to improve its potency, maintain non-toxicity, increase water solubility and improve bioavailability. The SAR refinement of functional activity of “hit” 1 on the inhibition of the Wnt pathway was determined using a cell-based Wnt-luciferase reporter assay (described above). with Renilla Luciferase was used as a normalization for transfection efficiency. 6-8 hours after transfection, transfected HEK293A cells were treated with 1 and each analog for 12 hours. Both firefly and renilla luciferase activities were measured using a plate reader. A library of compounds was tested to obtain an SAR for 1. Compound 1 and its analogs are synthesized by a two step synthesis, Scheme 1.
Signaling was tested using a standard luciferase response system for canonical Wnt/β-catenin/TCF signaling. Briefly, we used a cell line that had been transfected with a luciferase reporter gene under the control of the response element of a transcription factor that is activated by association with β-catenin and is the target of canonical Wnt signaling.

MDA-MB-231 [2] = test: inhibition of proliferation (PicoGreen DNA assay), MDA-MB-231; type: cell-based; details: Homo sapiens
Protocol: (§1) We tested a subset of the 50 sulfonamide analogues for inhibition of proliferation of the MDA-MB-231, PC-3, MCF-7, and HCT-116 cancer cell lines. Following plating of the cells (24 hrs) in eight identical 96-well plates, the cells were treated with either Compound 1, 4, 15, or vehicle (DMSO) using a dose range of 1.6 to 5000 nM. After the lysis of cells, the cell lysate was resuspended in 25 μl PBS and the DNA was quantified using a PicoGreen assay by measuring fluorescence at Ex490 nm/Em535 nm. Cell proliferation was inhibited by Compounds 1, 4, and 15 for all the cancer cell lines tested with inhibition constants listed in Table 2.

MCF-7 = test: inhibition of proliferation (PicoGreen DNA assay), MCF-7; type: cell-based; details: Homo sapiens, MCF7
Protocol: as §1

PC-3 [3] = test: inhibition of proliferation (PicoGreen DNA assay), PC-3; type: cell-based; details: Homo sapiens
Protocol: as §1

HCT-116 [4] = test: inhibition of proliferation (PicoGreen DNA assay), HCT-116; type: cell-based; details: Homo sapiens
Protocol: as §1

PC-3 [5] = test: stimulation of apoptosis, Caspase 3/7 cleavage (Caspase-Glo Kit), PC-3; type: cell-based; details: Homo sapiens, PC-3, 24 hrs
Protocol: (§2) Given Compounds 1, 4, and 15 inhibited cancer cell proliferation, we tested whether compounds 1, 4, and 15 stimulated cancer cell apoptosis. The MDA-MB-231, MCF-7, PC-3, and HCT-116 cells were treated with the indicated compounds for 24 hrs. over a dose range from 1.6 to 5000 nM. Apoptosis was then measured by monitoring Caspase 3/7 cleavage (Caspase-Glo Kit).

HCT-116 [6] = test: stimulation of apoptosis, Caspase 3/7 cleavage (Caspase-Glo Kit), HCT-116; type: cell-based; details: Homo sapiens, HCT-116, 24 hrs
Protocol: as §2

PC-3 [7] = test: viability (Alamar Blue), PC-3; type: cell-based; details: Homo sapiens; PC-3, 24 hrs
Protocol: (§3) Given Compounds 1, 4, and 15 inhibited cancer cell proliferation and stimulated apoptosis, we tested the effects compounds 1, 4, and 15 on cancer cell viability and cytotoxicity. The MDA-MB-231, MCF-7, PC-3, and HCT-116 cells were treated with the indicated compounds for 24 hrs. over a dose range from 1.6 to 5000 nM. Viability and cytotoxicity were then measured by the Alamar Blue and Vibrant Cytotox assays respectively.

MDA-MB-231 [8] = test: viability (Alamar Blue), MDA-MB-231; type: cell-based; details: Homo sapiens; MDA-MB-231, 24 hrs
Protocol: as §3

[9] = cytotoxicity (Vibrant Cytotox assay), LNCap; type: cell-based; details: human, LNCap cells
[10] = system: Endogenous Target Genes for Wnt & Apoptotic Pathways in MCF-7; test: qPCR of Wnt and pro-apoptotic target genes, MCF-7; type: cell-based; design: MYC expression, % change relative to DMSO control / BAX expression, % change relative to DMSO control / BAK expression, % change relative to DMSO control / BBC3 expression, % change relative to DMSO control / FOS expression, % change relative to DMSO control: concentration or dose not given beside the values; details: MCF-7, 24 hrs, qPCR normalized to 36B4
Protocol: (§4) Given the effects of Compounds 1, 4, and 15 on biological functions (e.g., proliferation, viability, and apoptosis) in several cancer cell lines, we tested the effects of compounds 1, 4, and 15 on regulation of endogenous Wnt and pro-apoptotic gene expression. MDA-MB-231, MCF-7, PC-3, and HCT-116 cancerncells were treated with the indicated compounds for 24 hrs. over a dose range from 1.6 to 5000 nM. Gene expression was measured using qPCR, normalized to the housekeeping gene, 36B4, and calculated % change relative to DMSO control. NC, no change.

[11] = system: Endogenous Target Genes for Wnt & Apoptotic Pathways in LNCAP; test: qPCR of Wnt and pro-apoptotic target genes, LNCAP; type: cell-based; design: MYC expression, % change relative to DMSO control / CCDN1 expression, % change relative to DMSO control / BAX expression, % change relative to DMSO control / BAK expression, % change relative to DMSO control / BBC3 expression, % change relative to DMSO control / FOS expression, % change relative to DMSO control: concentration or dose not given beside the values; details: 24 hrs, qPCR normalized to 36B4
[12] = system: Endogenous Target Genes for Wnt & Apoptotic Pathways in PC-3; test: qPCR of Wnt and pro-apoptotic target genes, PC-3; type: cell-based; design: concentration or dose not given beside the values; details: PC-3, 24 hrs, qPCR normalized to 36B4
Protocol: as §4

[13] = system: HCT-116 and MCF-7 cancer cells; p53 −/− isogenic HCT-116 cells; test: morphology change of cancer cells with and without p53; type: cell-based; details: for morphology change in cancer cells with wild-type and mutant p53: HCT-116 and MCF-7, 500 nM for 24 hours; for morphology change in cells lacking p53: −/− p53 isogenic HCT-116 cells, 500 nM for 24 hours
Text: Using the same treatment conditions, this morphology change was not observed in […] cells lacking p53 (i.e., −/− p53, isogenic HCT-116 cells) highlighting the integral importance of p53 protein in the mechanism of action of the disclosed compounds.

Row | SMILES | IC50 (MDA-MB-231 [2]) [µM] | IC50 (MCF-7) [µM] | IC50 (PC-3 [3]) [µM] | IC50 (HCT-116 [4]) [µM] | IC50 (PC-3 [5]) [µM] | IC50 (HCT-116 [6]) [µM] | IC50 (PC-3 [7]) [µM] | IC50 (MDA-MB-231 [8]) [µM] | IC50 at 24 h [9] [µM] | BAK expression, % change relative to DMSO control [10] | BBC3 expression, % change relative to DMSO control [10] | CCDN1 expression, % change relative to DMSO control [10] | FOS expression, % change relative to DMSO control [10] [%] | JUN expression, % change relative to DMSO control [10] | MYC expression, % change relative to DMSO control [10] [%] | BAK expression, % change relative to DMSO control [11] [%] | BAX expression, % change relative to DMSO control [11] [%] | BBC3 expression, % change relative to DMSO control [11] [%] | CCDN1 expression, % change relative to DMSO control [11] [%] | FOS expression, % change relative to DMSO control [11] [%] | further results
1 | O=C1CCCN1c1ccc(S(=O)(=O)N2CCCc3ccccc32)cc1 [Compound 1, 1-(4-(3,4-dihydroquinolin-1(2H)-ylsulfonyl)phenyl)pyrrolidin-2-one] | 0.1 | 0.02 | 0.02 | 0.04 | 0.049 | 0.096 | 0.157 | 0.035 | > 5 | −10% | −55% | +50% | −70 | +125% | −25 | −22 | −30 | −90 | −10 | −15 | EC50 ([1]; Homo sapiens, HEK-293T cells, SuperTOPFlash stimulated by Wnt3a conditioned media, read-out: inhibition of Wnt transcriptional activity, EC50): ~0.025 µM; Relative potency for Wnt inhibition [1]: +++ (between 40 to 60% potency compared to IWR-1); MYC expression, % change relative to DMSO control [11]: −35%; BAK expression, % change relative to DMSO control [12]: −20%; BAX expression, % change relative to DMSO control [12]: +5%; BBC3 expression, % change relative to DMSO control [12]: −38%; CCDN1 expression, % change relative to DMSO control [12]: +10%; FOS expression, % change relative to DMSO control [12]: +75%; JUN expression, % change relative to DMSO control [12]: +75%; MYC expression, % change relative to DMSO control [12]: +25%; morphology change in cancer cells with wild-type and mutant p53 [13]: morphology change from a flat adherent cell to a rounded non-adherent one; morphology change in cells lacking p53 [13]: not observed
2 | CC1CCc2ccccc2N1S(=O)(=O)c1ccc(N2CCCC2=O)cc1 (stereo not shown) [Compound 4, 1-(4-(2-methyl-3,4-dihydroquinolin-1(2H)-ylsulfonyl)phenyl)pyrrolidin-2-one] | 0.25 | 0.04 | 0.1 | 0.1 | 0.117 | 0.143 | 0.017 | 0.045 | > 5 | +25% | −40% | +100% | −85 | +50% | −5 | −42 | −55 | −85 | −30 | −38 | Relative potency for Wnt inhibition [1]: ++++ (between 60 to 80% potency compared to IWR-1); BAX expression, % change relative to DMSO control [10]: +75%; MYC expression, % change relative to DMSO control [11]: −40%; BAK expression, % change relative to DMSO control [12]: −55%; BAX expression, % change relative to DMSO control [12]: −55%; BBC3 expression, % change relative to DMSO control [12]: −37%; CCDN1 expression, % change relative to DMSO control [12]: −42%; FOS expression, % change relative to DMSO control [12]: −25%; JUN expression, % change relative to DMSO control [12]: −25%; MYC expression, % change relative to DMSO control [12]: −75%; morphology change in cancer cells with wild-type and mutant p53 [13]: morphology change from a flat adherent cell to a rounded non-adherent one; morphology change in cells lacking p53 [13]: not observed
3 | CN1CCN(S(=O)(=O)c2ccc(N3CCCC3=O)cc2)c2ccccc21 [Compound 15, 1-(4-(4-methyl-3,4-dihydroquinoxalin-1(2H)-ylsulfonyl)phenyl)pyrrolidin-2-one] | 0.025 | 0.02 | 0.02 | 0.015 | 0.032 | 0.015 | 0.032 | 0.093 | > 5 | +45% | +75% | +50% | −75 | +150% | −50 | −45 | −58 | −55 | −28 | −25 | inhibition of Wnt transcriptional activity, IC50 (class symbol) ([1]; tested simultaneously with p53 reporter): ++++ (between 60 to 80% potency compared to IWR-1); BAX expression, % change relative to DMSO control [10]: −25%; JUN expression, % change relative to DMSO control [11]: +45%; MYC expression, % change relative to DMSO control [11]: −45%; BAK expression, % change relative to DMSO control [12]: −58%; BAX expression, % change relative to DMSO control [12]: −54%; BBC3 expression, % change relative to DMSO control [12]: −45%; CCDN1 expression, % change relative to DMSO control [12]: −30%; FOS expression, % change relative to DMSO control [12]: −24%; JUN expression, % change relative to DMSO control [12]: −30%; MYC expression, % change relative to DMSO control [12]: −60%; morphology change in cancer cells with wild-type and mutant p53 [13]: morphology change from a flat adherent cell to a rounded non-adherent one; morphology change in cells lacking p53 [13]: not observed
